pIC50: −log10 of the molar value.
How the values were obtained:
[1] = system: Human immunodeficiency virus 1; assay: Antiviral activity against APV, ATV, IDV, LPV, NFV, RTV, SQV, AZT, ddI, 3TC, d4T-resistant HIV-1 MDR1385 infected in human PBMC assessed as inhibition of viral replication by ELISA; type: functional, organism-based; settings: Human immunodeficiency virus 1, MDR1385
PBMC = assay: Cytotoxicity against human PBMC at 0.83 uM by MTT assay; type: cell-based
[2] = Cytotoxicity against african green monkey Vero cells; type: cell-based; settings: chlorocebus sabaeus, read-out: TC50 (the source's name)
[3] = system: Human immunodeficiency virus 2; assay: Antiviral activity against HIV-2 isolate CDC310319 infected in human PBMC assessed as inhibition of viral replication; type: functional, organism-based; settings: Human immunodeficiency virus 2, isolate CDC310319
[4] = system: Vesicular stomatitis virus; assay: Antiviral activity against VSV infected in human embryonic lung cells assessed as inhibition of viral replication; type: functional, organism-based
[5] = system: Human immunodeficiency virus 1; assay: Antiviral activity against HIV1 subtype B SLKA infected in human PBMC assessed as inhibition of viral replication by ELISA; type: functional, organism-based; settings: Human immunodeficiency virus 1, subtype B SLKA
[6] = Cytotoxicity against human HepAD38 cells; type: cell-based; settings: read-out: TC50 (the source's name)
Rattus norvegicus = assay: Immunosuppressive activity in Sprague-Dawley rat KHL model assessed as percent T-helper cells at 50 mg/kg, po administered once daily for 28 days by flow cytometry; type: functional

## C/C=C/C[C@@H](C)[C@@H](O)[C@H]1C(=O)N[C@@H](CC)C(=O)N(C)[C@H](C)C(=O)N(CC)[C@@H](C(C)C)C(=O)N[C@@H](C(C)C)C(=O)N(C)[C@@H](CC(C)C)C(=O)N[C@@H](C)C(=O)N[C@H](C)C(=O)N(C)[C@@H](CC(C)C)C(=O)N(C)[C@@H](CC(C)C)C(=O)N(C)[C@@H](C(C)C)C(=O)N1C [ALISPORIVIR]
[1]
  pIC50: 7.24
PBMC
  Activity: Non-toxic
[2]
  CC50: 16.6 µM
[3]
  pIC50: 4.98
[4]
  pIC50: < 4.60
[5]
  pIC50: 7.60
[6]
  CC50: 16.4 µM
Rattus norvegicus
  Activity: 32.8%

Source: ChEMBL document CHEMBL1687706, “Inhibition of human immunodeficiency virus type 1 replication in human cells by Debio-025, a novel cyclophilin binding agent” (Antimicrob Agents Chemother, 2008)
